Laboratory results from US7629130B2 (priority 2005, dated 2009).
Read-outs that look alike come from different tables or passages of the source.

Key:
[1] = system: L. pneumophila within Dictyostelium; type: cell-based, Legionella pneumophila; conditions: within 6-8 days; 10 μM LY (FIG. 2C); MOI 1
[2] = system: Legionella-containing vacuoles in calnexin-GFP-labeled Dictyostelium; type: cell-based, Dictyostelium discoideum
[3] = system: Legionella-containing vacuoles in Dictyostelium; type: cell-based, Dictyostelium discoideum; conditions: 20 μM LY; 1 h infection; p<10^−9
[4] = system: Dictyostelium; type: cell-based, Dictyostelium discoideum
[5] = system: L. pneumophila
[6] = system: Dictyostelium
[7] = latrunculin B 1-50 μM, cytochalasin A 1-50 μM, cytochalasin D up to 50 μM, 1 h prior infection

For `O=c1cc(N2CCOCC2)oc2c(-c3ccccc3)cccc12` [LY294002], the “factor more wild-type L. pneumophila released compared to wild-type Dictyostelium” value [1] was ~100, the “portion of spacious LCVs” value ([2]; 15 min post infection, 20 μM LY-treated wild-type Dictyostelium (untreated 25%)) was “less than 5%” and the “portion of spacious LCVs” value ([2]; within 2 h, 20 μM LY-treated wild-type Dictyostelium (untreated 40%)) was 20%. The “factor more SidC localized to LCV membranes compared to untreated wild-type Dictyostelium” value [3] was ~1.5, the “change in phagocytosis of wild-type L. pneumophila” value ([4]; wild-type Dictyostelium treated with PI3K inhibitor (FIG. 2A: 5 μM wortmannin)) was −33% and the “viability of L. pneumophila (CFU)” value ([5]; wortmannin 0.1-10 μM, LY294002 5-25 μM, HL5 medium) was “did not affect viability”. For the same compound, the “viability of Dictyostelium (PFU)” value [6] was “did not affect viability”, the “viability of Dictyostelium Ax3 in MB medium” value [6] was “as viable as untreated” and the “viability of Dictyostelium at later time points (PFU on K. pneumoniae lawns)” value [6] was “reduced viability”.
`C=C1[C@@H](C)[C@H]2[C@H](Cc3ccccc3)NC(=O)[C@]23OC(=O)/C=C/C(=O)CCC[C@@H](C)C/C=C/[C@H]3[C@@H]1O` [cytochalasin A] was tested, and the Icm/Dot-dependent phagocytosis [4] was “blocked” and the “inhibition of phagocytosis (uptake) of L. pneumophila” value (from here on “inhibition of phagocytosis”) [4, 7] was “blocked phagocytosis in a dose-dependent manner”.
For `C=C1[C@@H](C)[C@H]2[C@H](Cc3ccccc3)NC(=O)[C@]23[C@H](OC(C)=O)/C=C/[C@@](C)(O)C(=O)[C@@H](C)C/C=C/[C@H]3[C@@H]1O` [cytochalasin D], the “inhibition of phagocytosis” value [4, 7] was “did not prevent uptake”.
In the case of `C/C1=C/C(=O)O[C@@H]2C[C@@H](CC[C@H](C)/C=C\CC1)O[C@@](O)([C@@H]1CSC(=O)N1)C2` [latrunculin B], the Icm/Dot-dependent phagocytosis [4] is reported as “blocked”, the “inhibition of phagocytosis” value [4] is reported as “blocked phagocytosis in a dose-dependent manner” and the “phagocytosis (FIG. 1)” value [4] is reported as “blocked”.
With `COC[C@H]1OC(=O)c2coc3c2[C@@]1(C)C1=C(C3=O)[C@@H]2CCC(=O)[C@@]2(C)C[C@H]1OC(C)=O` [wortmannin] the “change in phagocytosis of wild-type L. pneumophila” value [4] was −19%, the “viability of L. pneumophila (CFU)” value [5] was “did not affect viability” and the “viability of Dictyostelium (PFU)” value [6] was “did not affect viability”. The “viability of Dictyostelium Ax3 in MB medium” value [6] was “as viable as untreated”.
